“And” between values parts separate entries of the source, which are not always exact repeats. Identical values can stand only once. Counter-ions that a name gives are not always drawn. Like-named read-outs stand apart in the source and are kept apart here.
Tested on: β2AR
Settings: for competition binding curve vs isoproterenol (Extended Data Figure 3M), Fit / competition binding curve vs isoproterenol (Extended Data Figure 3M): Sensor; for competition binding curve vs isoproterenol (Extended Data Figure 3M), Fit / competition binding curve vs isoproterenol (Extended Data Figure 3L), Fit: fitted curve
Procedure: Reactions were equilibrated, washed, and measured following the same procedure listed above for the radioligand antagonist-binding assay. […] Weighted averages of these IC50 values were used for comparison purposes and inhibition constant (Ki) calculations. […] Binding assays were performed in technical duplicates. Three biological replicates were collected with different membrane preparations for each replicate.

## CC(C)NCC(O)c1ccc(O)c(O)c1 (stereo not drawn) [Isoproterenol, isoproterenol (+)-bitartrate salt]
Isoproterenol 1.00E-07 M
  competition binding curve vs isoproterenol (Extended Data Figure 3M), Fit: 74.45
Isoproterenol 1.00E-07 M, replicates 1-3 and Average
  competition binding curve vs isoproterenol (Extended Data Figure 3M): 73.61 and 76.73 and 72.17 and 74.17
Isoproterenol 1.00E-08 M
  competition binding curve vs isoproterenol (Extended Data Figure 3M), Fit: 96.90
Isoproterenol 1.00E-08 M, replicates 1-3 and Average
  competition binding curve vs isoproterenol (Extended Data Figure 3M): 94.98 and 101.48 and 95.93 and 97.46
Isoproterenol 1.00E-09 M
  competition binding curve vs isoproterenol (Extended Data Figure 3M), Fit: 100.28
Isoproterenol 1.00E-09 M, replicates 1-3 and Average
  competition binding curve vs isoproterenol (Extended Data Figure 3M): 98.04 and 104.41 and 99.80 and 100.75
Isoproterenol 1.00E-10 M
  competition binding curve vs isoproterenol (Extended Data Figure 3M), Fit: 100.63
Isoproterenol 1.00E-10 M, replicates 1-3 and Average
  competition binding curve vs isoproterenol (Extended Data Figure 3M): 100.71 and 99.53 and 99.04 and 99.76
Isoproterenol 5.00E-06 M
  competition binding curve vs isoproterenol (Extended Data Figure 3M), Fit: 10.04
Isoproterenol 5.00E-06 M, replicates 2-3 and Average
  competition binding curve vs isoproterenol (Extended Data Figure 3M): 10.13 and 9.02 and 9.58
Isoproterenol 5.00E-07 M
  competition binding curve vs isoproterenol (Extended Data Figure 3M), Fit: 42.59
Isoproterenol 5.00E-07 M, replicates 2-3 and Average
  competition binding curve vs isoproterenol (Extended Data Figure 3M): 41.48 and 44.45 and 42.96
Wild-Type + Gs-Peptide, Isoproterenol 1.00E-03 M
  competition binding curve vs isoproterenol (Extended Data Figure 3L), Fit: 0.69
Wild-Type + Gs-Peptide, Isoproterenol 1.00E-03 M, replicates 1-3 and Average
  competition binding curve vs isoproterenol (Extended Data Figure 3L): 0.0116 and 0.0442 and 0.27 and -0.28
Wild-Type + Gs-Peptide, Isoproterenol 1.00E-04 M
  competition binding curve vs isoproterenol (Extended Data Figure 3L), Fit: 1.04
Wild-Type + Gs-Peptide, Isoproterenol 1.00E-04 M, replicates 1-3 and Average
  competition binding curve vs isoproterenol (Extended Data Figure 3L): 0.88 and 0.89 and 0.84 and 0.90
Wild-Type + Gs-Peptide, Isoproterenol 1.00E-05 M
  competition binding curve vs isoproterenol (Extended Data Figure 3L), Fit: 4.37
Wild-Type + Gs-Peptide, Isoproterenol 1.00E-05 M, replicates 1-3 and Average
  competition binding curve vs isoproterenol (Extended Data Figure 3L): 5.43 and 5.70 and 4.92 and 5.68
Wild-Type + Gs-Peptide, Isoproterenol 1.00E-06 M
  competition binding curve vs isoproterenol (Extended Data Figure 3L), Fit: 26.38
Wild-Type + Gs-Peptide, Isoproterenol 1.00E-06 M, replicates 1-3 and Average
  competition binding curve vs isoproterenol (Extended Data Figure 3L): 26.11 and 25.98 and 23.88 and 28.47
Wild-Type + Gs-Peptide, Isoproterenol 1.00E-07 M
  competition binding curve vs isoproterenol (Extended Data Figure 3L), Fit: 67.56
Wild-Type + Gs-Peptide, Isoproterenol 1.00E-07 M, replicates 1-3 and Average
  competition binding curve vs isoproterenol (Extended Data Figure 3L): 67.66 and 67.54 and 65.49 and 69.94
Wild-Type + Gs-Peptide, Isoproterenol 1.00E-08 M
  competition binding curve vs isoproterenol (Extended Data Figure 3L), Fit: 91.53
Wild-Type + Gs-Peptide, Isoproterenol 1.00E-08 M, replicates 1-3 and Average
  competition binding curve vs isoproterenol (Extended Data Figure 3L): 91.27 and 90.42 and 91.58 and 91.80
Wild-Type + Gs-Peptide, Isoproterenol 1.00E-09 M
  competition binding curve vs isoproterenol (Extended Data Figure 3L), Fit: 98.02
Wild-Type + Gs-Peptide, Isoproterenol 1.00E-09 M, replicates 1-3 and Average
  competition binding curve vs isoproterenol (Extended Data Figure 3L): 99.15 and 99.41 and 97.66 and 100.39
Wild-Type + Gs-Peptide, Isoproterenol 1.00E-10 M
  competition binding curve vs isoproterenol (Extended Data Figure 3L), Fit: 98.82
Wild-Type + Gs-Peptide, Isoproterenol 1.00E-10 M, replicates 1-3 and Average
  competition binding curve vs isoproterenol (Extended Data Figure 3L): 99.26 and 100.00 (2×) and 97.78
Wild-Type, Isoproterenol 1.00E-03 M, replicates 1-3 and Average
  competition binding curve vs isoproterenol (Extended Data Figure 3L): -0.10 and -0.40 and -0.34 and -0.28
Wild-Type, Isoproterenol 1.00E-04 M
  competition binding curve vs isoproterenol (Extended Data Figure 3L), Fit: 0.67
Wild-Type, Isoproterenol 1.00E-04 M, replicates 1-3 and Average
  competition binding curve vs isoproterenol (Extended Data Figure 3L): 0.94 and 0.31 and 1.43 and 0.89
Wild-Type, Isoproterenol 1.00E-05 M
  competition binding curve vs isoproterenol (Extended Data Figure 3L), Fit: 5.86
Wild-Type, Isoproterenol 1.00E-05 M, replicates 1-3 and Average
  competition binding curve vs isoproterenol (Extended Data Figure 3L): 6.24 and 5.08 and 7.57 and 6.30
Wild-Type, Isoproterenol 1.00E-06 M
  competition binding curve vs isoproterenol (Extended Data Figure 3L), Fit: 32.07
Wild-Type, Isoproterenol 1.00E-06 M, replicates 1-3 and Average
  competition binding curve vs isoproterenol (Extended Data Figure 3L): 32.68 and 27.33 and 35.77 and 31.93
Wild-Type, Isoproterenol 1.00E-07 M
  competition binding curve vs isoproterenol (Extended Data Figure 3L), Fit: 78.70
Wild-Type, Isoproterenol 1.00E-07 M, replicates 1-3 and Average
  competition binding curve vs isoproterenol (Extended Data Figure 3L): 79.40 and 70.32 and 85.20 and 78.31
Wild-Type, Isoproterenol 1.00E-08 M
  competition binding curve vs isoproterenol (Extended Data Figure 3L), Fit: 97.15
Wild-Type, Isoproterenol 1.00E-08 M, replicates 1-3 and Average
  competition binding curve vs isoproterenol (Extended Data Figure 3L): 99.13 and 95.83 and 100.15 and 98.37
Wild-Type, Isoproterenol 1.00E-09 M
  competition binding curve vs isoproterenol (Extended Data Figure 3L), Fit: 99.60
Wild-Type, Isoproterenol 1.00E-09 M, replicates 1-3 and Average
  competition binding curve vs isoproterenol (Extended Data Figure 3L): 96.70 and 99.42 and 102.28 and 99.47
Wild-Type, Isoproterenol 1.00E-10 M
  competition binding curve vs isoproterenol (Extended Data Figure 3L), Fit: 99.85
Wild-Type, Isoproterenol 1.00E-10 M, replicates 1-3 and Average
  competition binding curve vs isoproterenol (Extended Data Figure 3L): 100.00 and 99.63 and 97.46 and 99.03
Wild-Type, Isoproterenol 5.00E-06 M
  competition binding curve vs isoproterenol (Extended Data Figure 3L), Fit: 10.54
Wild-Type, Isoproterenol 5.00E-06 M, replicates 1-3 and Average
  competition binding curve vs isoproterenol (Extended Data Figure 3L): 11.05 and 8.39 and 11.22 and 10.22
Wild-Type, Isoproterenol 5.00E-07 M
  competition binding curve vs isoproterenol (Extended Data Figure 3L), Fit: 46.03
Wild-Type, Isoproterenol 5.00E-07 M, replicates 1-3 and Average
  competition binding curve vs isoproterenol (Extended Data Figure 3L): 47.06 and 40.75 and 51.12 and 46.31
β2AR ∆ICL3 + 30 µM Gq-peptide, isoproterenol 3.00E-06 M
  % Cyanopindolol Bmax, Average: 34.71%
β2AR ∆ICL3 + 30 µM Gq-peptide, isoproterenol 5.00E-06 M
  % Cyanopindolol Bmax, Average: 27.06%
β2AR ∆ICL3 + 30 µM Gq-peptide, isoproterenol 5.00E-07 M
  % Cyanopindolol Bmax, Average: 70.37%
β2AR ∆ICL3, isoproterenol 3.00E-06 M
  % Cyanopindolol Bmax, Average: 30.73%
β2AR ∆ICL3, isoproterenol 5.00E-06 M
  % Cyanopindolol Bmax, Average: 15.67%
β2AR ∆ICL3, isoproterenol 5.00E-07 M
  % Cyanopindolol Bmax, Average: 65.90%

— PMC10033409, “Autoregulation of GPCR signalling through the third intracellular loop” (Nature, 2023)
